Source: ChEMBL document CHEMBL4811267, “Structurally Diverse Diterpenoids from the Roots of Salvia deserta Based on Nine Different Skeletal Types” (J Nat Prod, 2021)

Experiments:
[1] = tested on: MCF7; test: Cytotoxicity against human MCF7 cells assessed as reduction in cell viability after 48 hrs by MTS assay; assay type: functional, cell-based; settings: MCF7, 48 h
[2] = tested on: A549; test: Cytotoxicity against human A549 cells assessed as reduction in cell viability after 48 hrs by MTS assay; assay type: functional, cell-based; settings: A549, 48 h
[3] = tested on: BEAS-2B; test: Cytotoxicity against human BEAS2B cells assessed as reduction in cell viability after 48 hrs by MTS assay; assay type: cell-based
[4] = tested on: HL-60; test: Cytotoxicity against human HL60 cells assessed as reduction in cell viability after 48 hrs by MTS assay; assay type: functional, cell-based; settings: HL-60, 48 h
[5] = tested on: SMMC-7721; test: Cytotoxicity against human SMMC-7721 cells assessed as reduction in cell viability after 48 hrs by MTS assay; assay type: functional, cell-based; settings: SMMC-7721, 48 h
[6] = tested on: SW480; test: Cytotoxicity against human SW480 cells assessed as reduction in cell viability after 48 hrs by MTS assay; assay type: functional, cell-based; settings: SW480, 48 h

## CC(C)c1cc(C=O)c2c(c1O)OC(O)[C@H]1C(C)(C)CCC[C@]21C (some centres undefined)
[1]
  IC50: > 10 µM
[2]
  IC50: > 10 µM
[3]
  IC50: > 10 µM
[4]
  IC50: > 10 µM
[5]
  IC50: > 10 µM
[6]
  IC50: > 10 µM

## CO[C@@H]1C2=C(C(=O)C(O)=C(C(C)C)C2=O)[C@@]2(C)CCCC(C)(C)[C@H]12
[1]
  IC50: > 10 µM
[2]
  IC50: > 10 µM
[3]
  IC50: > 10 µM
[4]
  IC50: > 10 µM
[5]
  IC50: > 10 µM
[6]
  IC50: > 10 µM

## COc1c(C(C)C)cc2c(c1O)[C@@]1(C)CCCC(C)(C)[C@@H]1CC2=O [CRYPTOJAPONOL]
[1]
  IC50: > 10 µM
[2]
  IC50: > 10 µM
[3]
  IC50: > 10 µM
[4]
  IC50: > 10 µM
[5]
  IC50: > 10 µM
[6]
  IC50: > 10 µM

## CC(C)C1=C(O)C(=O)C2=C(C=C3C(C)(C)CCC[C@@]32C)C1=O
[1]
  IC50: > 10 µM
[2]
  IC50: > 10 µM
[3]
  IC50: > 10 µM
[4]
  IC50: > 10 µM
[5]
  IC50: > 10 µM
[6]
  IC50: > 10 µM

## CC(C)c1cc2c(cc1O)[C@@]1(C)CC[C@H](O)C(C)(C)[C@@H]1CC2 [HINOKIOL]
[1]
  IC50: > 10 µM
[2]
  IC50: > 10 µM
[3]
  IC50: > 10 µM
[4]
  IC50: > 10 µM
[5]
  IC50: > 10 µM
[6]
  IC50: > 10 µM

## CC(C)c1cc2c(cc1O)[C@@]1(C)C[C@H](O)CC(C)(C)[C@@H]1CC2
[1]
  IC50: > 10 µM
[2]
  IC50: > 10 µM
[3]
  IC50: > 10 µM
[4]
  IC50: > 10 µM
[5]
  IC50: > 10 µM
[6]
  IC50: > 10 µM

## CC(C)C1=C(O)C(=O)C2=C(C=C[C@H]3C(C)(C)CCC[C@]3(C)O2)C1=O
[1]
  IC50: > 10 µM
[2]
  IC50: > 10 µM
[3]
  IC50: > 10 µM
[4]
  IC50: > 10 µM
[5]
  IC50: > 10 µM
[6]
  IC50: > 10 µM

## CC(C)C1=C(O)C(=O)C2=C(C1=O)[C@H](O)[C@H]1C(C)(C)CCC[C@]21C
[1]
  IC50: > 10 µM
[2]
  IC50: > 10 µM
[3]
  IC50: > 10 µM
[4]
  IC50: > 10 µM
[5]
  IC50: > 10 µM
[6]
  IC50: > 10 µM

## CC(C)c1cc2c(c(O)c1O)[C@@]1(C)CCCC(C)(C)C1=CC2=O [SALVINOLONE]
[1]
  IC50: > 10 µM
[2]
  IC50: > 10 µM
[3]
  IC50: > 10 µM
[4]
  IC50: > 10 µM
[5]
  IC50: > 10 µM
[6]
  IC50: > 10 µM

## CC(C)c1cc2c(cc1O)[C@@]1(C)CCCC(C)(C)[C@@H]1CC2=O [SUGIOL]
[1]
  IC50: > 10 µM
[2]
  IC50: > 10 µM
[3]
  IC50: > 10 µM
[4]
  IC50: > 10 µM
[5]
  IC50: > 10 µM
[6]
  IC50: > 10 µM

## CC(C)c1cc(C(=O)O)c2c(c1O)O[C@]1(O)C(C)(C)[C@@H](O)CC[C@]21C
[1]
  IC50: > 10 µM
[2]
  IC50: > 10 µM
[3]
  IC50: > 10 µM
[4]
  IC50: > 10 µM
[5]
  IC50: > 10 µM
[6]
  IC50: > 10 µM

## CC(C)c1cc2c(cc1O)C=C[C@H]1C(C)(C)CCC[C@]21C
[1]
  IC50: > 10 µM
[2]
  IC50: > 10 µM
[3]
  IC50: > 10 µM
[4]
  IC50: > 10 µM
[5]
  IC50: > 10 µM
[6]
  IC50: > 10 µM

## COc1c(O)c2c(c(C=O)c1C(C)C)[C@H](O)[C@H]1C(C)(C)CCC[C@]21C
[1]
  IC50: > 10 µM
[2]
  IC50: > 10 µM
[3]
  IC50: > 10 µM
[4]
  IC50: > 10 µM
[5]
  IC50: > 10 µM
[6]
  IC50: > 10 µM

## Cc1ccc2cc(C(C)C)c(O)c3c2c1C(=O)CCC(C)(C)O3
[1]
  IC50: > 10 µM
[2]
  IC50: > 10 µM
[3]
  IC50: > 10 µM
[4]
  IC50: > 10 µM
[5]
  IC50: > 10 µM
[6]
  IC50: > 10 µM

## CC(C)c1cc2c(c(O)c1O)[C@@]1(C)CCCC(C)(C)[C@@H]1CC2=O [DEMETHYLCRYPTOJAPONOL]
[1]
  IC50: > 10 µM
[2]
  IC50: > 10 µM
[3]
  IC50: > 10 µM
[4]
  IC50: > 10 µM
[5]
  IC50: > 10 µM
[6]
  IC50: > 10 µM

## CC(C)c1c(O)c(O)c2c(c1C=O)[C@H](O)[C@H]1C(C)(C)CCC[C@]21C
[1]
  IC50: > 10 µM
[2]
  IC50: > 10 µM
[3]
  IC50: > 10 µM
[4]
  IC50: > 10 µM
[5]
  IC50: > 10 µM
[6]
  IC50: > 10 µM

## CC(C)c1cc2c(c(O)c1O)[C@@]1(C)CCCC(C)(C)C1=C(O)C2=O [14-DEOXYCOLEON U]
[1]
  IC50: 5.6 µM
[2]
  IC50: 8.4 µM
[3]
  IC50: > 10 µM
[4]
  IC50: 6.2 µM
[5]
  IC50: 9.2 µM
[6]
  IC50: > 10 µM

## CC(C)c1cc(O)c2c(c1O)C(=O)C[C@H]1C(C)(C)CCC[C@]21C
[1]
  IC50: > 10 µM
[2]
  IC50: > 10 µM
[3]
  IC50: > 10 µM
[4]
  IC50: > 10 µM
[5]
  IC50: > 10 µM
[6]
  IC50: > 10 µM

## CC(C)c1cc2c(cc1O)C(=O)C[C@H]1C(C)(C)CCC[C@]21C
[1]
  IC50: > 10 µM
[2]
  IC50: > 10 µM
[3]
  IC50: > 10 µM
[4]
  IC50: > 10 µM
[5]
  IC50: > 10 µM
[6]
  IC50: > 10 µM

## CC(C)c1cc2c(c(O)c1O)[C@@]1(C)CCC[C@](C)(CO)C1=C(O)C2=O
[1]
  IC50: > 10 µM
[2]
  IC50: > 10 µM
[3]
  IC50: > 10 µM
[4]
  IC50: > 10 µM
[5]
  IC50: > 10 µM
[6]
  IC50: > 10 µM

## CC(C)C1=C[C@]23CC[C@@H]4C(=CCCC4(C)C)[C@H]2CC(=O)[C@]3(O)C1=O
[1]
  IC50: > 10 µM
[2]
  IC50: > 10 µM
[3]
  IC50: > 10 µM
[4]
  IC50: > 10 µM
[5]
  IC50: > 10 µM
[6]
  IC50: > 10 µM

## CC(C)c1cc(C(=O)O)c2c(c1O)O[C@]1(O)[C@@](C)(CO)CCC[C@]21C
[1]
  IC50: > 10 µM
[2]
  IC50: > 10 µM
[3]
  IC50: > 10 µM
[4]
  IC50: > 10 µM
[5]
  IC50: > 10 µM
[6]
  IC50: > 10 µM

## CC(C)c1cc2c(c(O)c1O)[C@@]1(C)CCCC(C)(C)[C@@H]1[C@H](O)C2=O
[1]
  IC50: > 10 µM
[2]
  IC50: > 10 µM
[3]
  IC50: > 10 µM
[4]
  IC50: > 10 µM
[5]
  IC50: > 10 µM
[6]
  IC50: > 10 µM

## CC(C)c1c(O)c(C=O)c2c(c1O)OC(O)[C@H]1C(C)(C)CCC[C@]21C (some centres undefined)
[1]
  IC50: > 10 µM
[2]
  IC50: > 10 µM
[3]
  IC50: > 10 µM
[4]
  IC50: > 10 µM
[5]
  IC50: > 10 µM
[6]
  IC50: > 10 µM
